The text below walks through data of paper PMC8602401 (Scientific Reports, 2021).

For data set [1] the following is noted: oral semaglutide with SNAC; cited from earlier work. From the text: Previous approaches to engineering peptide therapeutics include substitution with unnatural amino acids to protect proteolytically vulnerable sites, and lipidation to promote reversible serum protein binding and reduced renal clearance[40]–[42]. […] Ala[8] is replaced with artificial α-methyl-L-alanine to protect the peptide against serum DPP-IV and the peptide is mono-lipidated at Lys[26],[43]. Despite these modifications, semaglutide is still susceptible to rapid proteolytic degradation in th ...

Data set [2] can be described thus: Bioavailability after intraduodenal administration with permeation enhancers in rats. The note with it: single intraduodenal administration with permeation enhancers (NaCDC and PG), n = 4 per group. The class given is in vivo, rat. The protocol:
Male Sprague Dawley rats (Charles River, Shrewsbury, MA, USA) weighing 250–275 g were housed with ad libitum access to standard chow and water. Test peptides were administered via either an intravenous or a duodenal catheter (4 rats per group) after overnight fasting, and food was returned following 4 h blood collection. Blood was collected via a jugular vein catheter at − 5, 15 and 30 min and 1, 2, 4, 8 and 24 h after intravenous dosing, or for intraduodenal groups at 15 min predose and 0.5, 1, 2, 4, 8, 24 and 48 h postdose. Blood was collected in K2EDTA tubes and kept on wet ice prior to 10 min centrifugation (3000 × g) at 5 °C ± 3 °C. Plasma samples were stored at − 70 °C until analysis.
Fifty or seventy μL aliquots of K2EDTA plasma samples were precipitated with 75% acetonitrile (Sigma-Aldrich) in water (J.T. Baker, Phillipsburg, NJ, USA) (v/v) and centrifuged at 2000 × g. The supernatant was dried under nitrogen at 60 °C, then cooled. Samples were reconstituted in 20% acetonitrile in water (v/v). […] Gradient separation was performed with water and 0.2% formic acid (Thermo Fisher Scientific, Waltham, MA, USA) as mobile phase A, and acetonitrile with 0.2% formic acid as mobile phase B. The method was qualified for the quantification range of 1–1000 ng/mL with accuracy and precision of ± 20%, except for at the lower limit of quantification when the accuracy and precision were ± 25%. Plasma concentrations were subject to noncompartmental analysis consistent with the route of administration using Phoenix WinNonlin (version 7.0, Certara, Princeton, NJ, USA).

Data set [3] has as its system rat plasma protein. Kind of data set: EScalate equilibrium shift assay, rat plasma. The class given is in vitro ADME. The note with it: EScalate equilibrium shift assay.
Data set [4] is described as follows: Pharmacokinetics of oral tablets in dogs. The class given is in vivo. The note with it: oral tablets 20 mg/dog, semaglutide: 300 mg SNAC, uncoated, MEDI7219: 100 mg NaCDC and 200 mg PG, pH 5.5 enteric, arithmetic mean (% CV).
The test system of data set [5] is dog plasma protein. Kind of data set: EScalate equilibrium shift assay, dog plasma. The class given is in vitro ADME.
Details of data set [6]: method as in PMID 30429357. To be noted: oral semaglutide in dogs; cited from earlier work.
Data set [7] concerns monkey plasma protein. Briefly: EScalate equilibrium shift assay, monkey plasma. The class given is in vitro ADME. To be noted: EScalate equilibrium shift assay. Here is the method:
[The procedure below names another species; the source lists this species under the same test.] (§1) Binding of peptides to human plasma proteins was determined by the EScalate equilibrium shift assay (Sovicell, Leipzig, Germany), using five dilutions of plasma in phosphate buffered saline and an assumed binding protein concentration of 600 µM. Samples were incubated for 1 h at room temperature then centrifuged to remove the HSA-coated beads. Supernatant samples were analyzed using HPLC (3 µm Phenomenex Aeris Widepore XB-C18 stationary phase) coupled to an electrospray ionization quadrupole time-of-flight mass spectrometer in high resolution accurate mass mode (Agilent, Santa Clara, CA, USA). Unbound fractions were calculated from the concentration-dependent shift in binding equilibrium according to fu=1/1+P/KDPlasma , where P is the concentration of the binding protein in plasma and KDPlasma is the dissociation constant of the compound from plasma proteins in solution.

Data set [8] has as its system human plasma protein. Kind of data set: EScalate equilibrium shift assay, human plasma. The class given is in vitro ADME. The note with it: EScalate equilibrium shift assay. Here is the method: as §1
The subject of data set [9] is FaSSIF/pancreatin. Kind of data set: Fasted-state simulated intestinal fluid/pancreatin assay. The class given is in vitro ADME. The note with it: FaSSIF/USP pancreatin; analytical RP-HPLC. The protocol: Fresh FaSSIF and USP Pancreatin (FaSSIF/p; Sigma-Aldrich) was prepared according to Galia et al[55]. and used immediately. Peptides were dissolved in pre-warmed FaSSIF before addition of pre-warmed FaSSIF/pancreatin with agitation. Samples were analyzed by analytical RP-HPLC to determine remaining intact peptide by area under the curve.

Molecules are shown by their SMILES.

For `CC[C@H](C)[C@H](NC(=O)[C@H](Cc1ccccc1)NC(=O)[C@H](CCC(=O)O)NC(=O)[C@H](CCCCNC(=O)COCCOCCNC(=O)COCCOCCNC(=O)CC[C@H](NC(=O)CCCCCCCCCCCCCCCCC(=O)O)C(=O)O)NC(=O)[C@H](C)NC(=O)[C@H](C)NC(=O)[C@H](CCC(N)=O)NC(=O)CNC(=O)[C@H](CCC(=O)O)NC(=O)[C@H](CC(C)C)NC(=O)[C@H](Cc1ccc(O)cc1)NC(=O)[C@H](CO)NC(=O)[C@H](CO)NC(=O)[C@@H](NC(=O)[C@H](CC(=O)O)NC(=O)[C@H](CO)NC(=O)[C@@H](NC(=O)[C@H](Cc1ccccc1)NC(=O)[C@@H](NC(=O)CNC(=O)[C@H](CCC(=O)O)NC(=O)C(C)(C)NC(=O)[C@@H](N)Cc1cnc[nH]1)[C@@H](C)O)[C@@H](C)O)C(C)C)C(=O)N[C@@H](C)C(=O)N[C@@H](Cc1c[nH]c2ccccc12)C(=O)N[C@@H](CC(C)C)C(=O)N[C@H](C(=O)N[C@@H](CCCNC(=N)N)C(=O)NCC(=O)N[C@@H](CCCNC(=N)N)C(=O)NCC(=O)O)C(C)C` [Semaglutide, semaglutide, reference compound], the “bioavailability of oral formulation with SNAC” value in data set [1] is 0.4–1%. Also, the “mean bioavailability (%F)” value in data set [2] is 0.08%. Moreover, the “peptide bound to plasma proteins, rat” value in [3] is listed as “over 97%”. Further, in [4] (n = 9), the AUC0-inf is 1,440 (45.8) ng·h/mL. Also, the “F (bioavailability, systemic fraction)” value in data set [4] (n = 9) is reported as 0.08 (45.8) %; in data set [4] (n = 9, listed as semaglutide), 0.08%. For the same molecule, the t½ in data set [4] (plasma, LC/MS, n = 9) was 60.5 (13.6) hours. The “peptide bound to plasma proteins, dog” value in [5] (EScalate equilibrium shift assay) is given as “over 97%”. The “Fraction unbound peptide (%), dog” value in data set [5] (EScalate equilibrium shift, five dilutions of plasma in PBS, 1 h at room temperature, HPLC-QTOF MS) was 0.37%. In data set [6], the “published bioavailability (%F) in dogs” value is 1.22%. In addition, the “peptide bound to plasma proteins, monkey” value in data set [7] is given as “over 97%”. Also, the “peptide bound to plasma proteins, human” value in [8] is on record as “over 97%”. The “time to complete degradation in FaSSIF/pancreatin” value in data set [9] was “less than 20 min”.
